Results published in patent US9328083B2, “2-aminated methylene or 2-esterified methylene tanshinone derivatives, and preparation method and application thereof” (HANGZHOU BENSHENG PHARMACEUTICAL CO., LTD., priority 2011, dated 2016).
Values after ≈ are worked out from the molar mass of the structure shown.

What was measured:
[1] = system: NB4 (acute promyelocytic leukemia, AML); assay: MTT growth inhibition of leukemia cells, 72 h; format: cell-based, human; settings: Homo sapiens, NB4, 72 h; for IC50: read-out: IC50; for IC90: read-out: IC90
In short: (§1)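 MTT assay of viable cells following 72 h compound treatment at 37 °C. Cultures contained 6000 cells per well in RPMI-1640 plus 10% fetal bovine serum.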

[2] = system: Kasumi-1 (acute myeloid leukemia M2 type, AML-M2); assay: MTT growth inhibition of leukemia cells, 72 h; format: cell-based, human; settings: Homo sapiens, Kasumi-1, 72 h; for IC50: read-out: IC50; for IC90: read-out: IC90
In short: as §1

[3] = system: Jurkat (acute lymphoblastic leukemia, ALL); assay: MTT growth inhibition of leukemia cells, 72 h; format: cell-based, human; settings: Homo sapiens, 72 h; for IC50: read-out: IC50; for IC90: read-out: IC90
In short: as §1

[4] = system: H9 (acute lymphoblastic leukemia, ALL); assay: MTT growth inhibition of leukemia cells, 72 h; format: cell-based, human; settings: Homo sapiens, H9, 72 h; for IC50: read-out: IC50; for IC90: read-out: IC90
In short: as §1

[5] = system: K562/adr (drug-resistant, chronic myeloid leukemia, CML); assay: MTT growth inhibition of leukemia cells, 72 h; format: cell-based, human; settings: Homo sapiens, K562/Adr; for IC50: read-out: IC50; for IC90: read-out: IC90
In short: as §1

[6] = system: RPMI8226 (multiple myeloma); assay: MTT growth inhibition of multiple myeloma cells, 72 h; format: cell-based, human; settings: Homo sapiens, RPMI 8226, 72 h; for IC50: read-out: IC50; for IC90: read-out: IC90
In short: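 RPMI8226 myeloma cells, 6000 per well in 1640 medium with 10% FBS, exposed to compounds at a range of concentrations (diluted from 10 mg/mL DMSO stock) for 72 h at 37° C, 5% CO2. Viable cells then determined by MTT.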

[7] = system: Hep G2 (human liver cancer cell); assay: MTT growth inhibition of human solid tumor cells, 72 h; format: cell-based; settings: Homo sapiens, HepG2, Hep G2, 72 h; for IC50: read-out: IC50; for IC90: read-out: IC90
In short: (§2)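 Tanshinone I and its aminated or esterified methylene derivatives were tested on cells grown in 10% FBS high-glucose DMEM, seeded at 4000 per well and incubated at 37° C with 5% CO2 for 24 h before treatment.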

[8] = system: Becap37 (human breast cancer cell); assay: as above; format: cell-based; settings: Homo sapiens, Becap-37, 72 h; for IC50: read-out: IC50; for IC90: read-out: IC90
In short: as §2

[9] = system: Hep-2 (laryngeal carcinoma); assay: as above; format: cell-based; settings: Homo sapiens, HEp-2, 72 h; for IC50: read-out: IC50; for IC90: read-out: IC90
In short: as §2

[10] = system: CNE (nasopharyngeal carcinoma cell); assay: as above; format: cell-based; settings: Homo sapiens; for IC50: read-out: IC50; for IC90: read-out: IC90
In short: as §2

[11] = system: U87 MG (malignant glioma cell); assay: as above; format: cell-based; settings: Homo sapiens, U-87 MG, U87-MG, 72 h; for IC50: read-out: IC50; for IC90: read-out: IC90
In short: as §2

[12] = system: Hela (human cervical cancer cell); assay: as above; format: cell-based; settings: Homo sapiens, HeLa, 72 h; for IC50: read-out: IC50; for IC90: read-out: IC90
In short: as §2

[13] = system: PC-3 (prostate cancer); assay: as above; format: cell-based; settings: Homo sapiens, PC-3, 72 h; for IC50: read-out: IC50; for IC90: read-out: IC90
In short: as §2

[14] = system: CaES-17 (esophageal cancer cell); assay: as above; format: cell-based; settings: Homo sapiens, CaEs17, CaEs-17, 72 h; for IC50: read-out: IC50; for IC90: read-out: IC90
In short: as §2

[15] = system: MGC 803 (human gastric cancer cell); assay: as above; format: cell-based; settings: Homo sapiens, MGC-803, 72 h; for IC50: read-out: IC50; for IC90: read-out: IC90
In short: as §2

[16] = system: SK-OV-3 (ovarian cancer cell); assay: as above; format: cell-based; settings: Homo sapiens, SK-OV-3, 72 h; for IC50: read-out: IC50; for IC90: read-out: IC90
In short: as §2

[17] = system: RKO (human colon adenocarcinoma cell); assay: as above; format: cell-based; settings: Homo sapiens; for IC50: read-out: IC50; for IC90: read-out: IC90
In short: as §2

[18] = system: MG63 (osteosarcoma); assay: as above; format: cell-based; settings: Homo sapiens, MG-63, 72 h; for IC50: read-out: IC50; for IC90: read-out: IC90
In short: as §2

[19] = system: PANC-1 (pancreatic cancer); assay: as above; format: cell-based; settings: Homo sapiens, PANC-1, 72 h; for IC50: read-out: IC50; for IC90: read-out: IC90
In short: as §2

[20] = system: A549 (human lung cancer); assay: as above; format: cell-based; settings: Homo sapiens, A549, 72 h; for IC50: read-out: IC50; for IC90: read-out: IC90
In short: as §2

Structure (SMILES) | IC50 [1] | IC90 [1] | IC50 [2] | IC90 [2] | IC50 [3] | IC90 [3] | IC50 [4] | IC90 [4] | IC50 [5] | IC90 [5] | IC50 [6] | IC90 [6] | IC50 [7] | IC90 [7] | IC50 [8] | IC90 [8] | IC50 [9] | IC90 [9] | IC50 [10] | IC90 [10] | also measured
Cc1c(CNCCC(C)(C)C)oc2c1C(=O)C(=O)c1c-2ccc2c(C)cccc12 [BS-TA-B14] | 3.59 µg/mL (≈ 9.22 µM) | 13.7 µg/mL (≈ 35.2 µM) | 0.6 µg/mL (≈ 1.54 µM) | 1.99 µg/mL (≈ 5.11 µM) | 6.66 µg/mL (≈ 17.1 µM) | > 16 µg/mL | 2 µg/mL (≈ 5.13 µM) | 11.9 µg/mL (≈ 30.6 µM) | 0.77 µg/mL (≈ 1.98 µM) | 1.82 µg/mL (≈ 4.67 µM) | 8 µg/mL (≈ 20.5 µM) | > 16 µg/mL | 16 µg/mL (≈ 41.1 µM) | > 16 µg/mL | 4.6 µg/mL (≈ 11.8 µM) | > 16 µg/mL | 14.3 µg/mL (≈ 36.7 µM) | 35.2 µg/mL (≈ 90.5 µM) | > 16 µg/mL | > 16 µg/mL | IC50 [11]: 3.85 µg/mL (≈ 9.88 µM); IC90 [11]: > 16 µg/mL; IC50 [12]: 5.28 µg/mL (≈ 13.6 µM); IC90 [12]: 84.2 µg/mL (≈ 216 µM); IC50 [13]: 14.7 µg/mL (≈ 37.6 µM); IC90 [13]: > 16 µg/mL; IC50 [14]: > 16 µg/mL; IC90 [14]: > 16 µg/mL; IC50 [15]: 14.4 µg/mL (≈ 37 µM); IC90 [15]: > 16 µg/mL; IC50 [16]: > 16 µg/mL; IC90 [16]: > 16 µg/mL; IC50 [17]: 3.36 µg/mL (≈ 8.63 µM); IC90 [17]: > 16 µg/mL; IC50 [18]: 4.86 µg/mL (≈ 12.5 µM); IC90 [18]: > 16 µg/mL; IC50 [19]: 1.88 µg/mL (≈ 4.83 µM); IC90 [19]: 6.19 µg/mL (≈ 15.9 µM); IC50 [20]: 1.75 µg/mL (≈ 4.49 µM); IC90 [20]: 9 µg/mL (≈ 23.1 µM)
CC(=O)OCCN(C)Cc1oc2c(c1C)C(=O)C(=O)c1c-2ccc2c(C)cccc12 [BS-TA-61] | 0.73 µg/mL (≈ 1.8 µM) | 1.9 µg/mL (≈ 4.69 µM) | 0.31 µg/mL (≈ 0.765 µM) | 1.28 µg/mL (≈ 3.16 µM) | 0.56 µg/mL (≈ 1.38 µM) | 0.99 µg/mL (≈ 2.44 µM) | 0.57 µg/mL (≈ 1.41 µM) | 0.9 µg/mL (≈ 2.22 µM) | 0.61 µg/mL (≈ 1.5 µM) | 1.61 µg/mL (≈ 3.97 µM) | 1.82 µg/mL (≈ 4.49 µM) | 3.92 µg/mL (≈ 9.67 µM) | 2.95 µg/mL (≈ 7.28 µM) | 9.75 µg/mL (≈ 24 µM) | 2.54 µg/mL (≈ 6.26 µM) | 4.92 µg/mL (≈ 12.1 µM) | 0.84 µg/mL (≈ 2.07 µM) | 2.52 µg/mL (≈ 6.22 µM) | 2.8 µg/mL (≈ 6.91 µM) | 7.2 µg/mL (≈ 17.8 µM) | IC50 [11]: 2.59 µg/mL (≈ 6.39 µM); IC90 [11]: 3.87 µg/mL (≈ 9.54 µM); IC50 [12]: 1.49 µg/mL (≈ 3.67 µM); IC90 [12]: 4 µg/mL (≈ 9.87 µM); IC50 [13]: 2.65 µg/mL (≈ 6.54 µM); IC90 [13]: 6.49 µg/mL (≈ 16 µM); IC50 [14]: 3 µg/mL (≈ 7.4 µM); IC90 [14]: 5.07 µg/mL (≈ 12.5 µM); IC50 [15]: 2.47 µg/mL (≈ 6.09 µM); IC90 [15]: 8.33 µg/mL (≈ 20.5 µM); IC50 [16]: 5.83 µg/mL (≈ 14.4 µM); IC90 [16]: 9.47 µg/mL (≈ 23.4 µM); IC50 [17]: 0.46 µg/mL (≈ 1.13 µM); IC90 [17]: 6.98 µg/mL (≈ 17.2 µM); IC50 [18]: 2.34 µg/mL (≈ 5.77 µM); IC90 [18]: 6.79 µg/mL (≈ 16.7 µM); IC50 [19]: 0.74 µg/mL (≈ 1.83 µM); IC90 [19]: 4.95 µg/mL (≈ 12.2 µM); IC50 [20]: 2.76 µg/mL (≈ 6.81 µM); IC90 [20]: 6.41 µg/mL (≈ 15.8 µM)
